Structures can show the parent of a compound that is named as a salt. Where two headings read alike, the source gives them in different places.
How the values were obtained:
[1] = system: fibrin-induced microglia activation; assay: Image-based assay of fibrin-induced microglia activation (HTS and dose response); assay type: cell-based, rat; conditions: for inhibition at 10 µM: Rattus norvegicus, Microglia, read-out: Fibrin % inhibition
[2] = system: LPS-induced microglia activation; assay: Image-based assay of LPS-induced microglia activation (HTS and dose response); assay type: cell-based, rat
[3] = system: fibrin- and LPS-induced microglia activation; assay: cells; assay type: cell-based, rat
primary rat microglia [4] = system: primary rat microglia;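 as to Fibrin % cell toxicity: share of dead cells sized under 150 µm2 at 10 µM in fibrin-stimulated microglia HTS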
primary rat microglia [5] = system: primary rat microglia; remark: listed apart in the source;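 as to Fibrin % cell toxicity: share of dead cells sized under 150 µm2 at 10 µM in fibrin-stimulated microglia HTS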
[6] = primary microglia HTS, fibrin stimulation, compounds at 10 μM
[7] = classification by fibrin and LPS inhibition, HTS at 10 μM
[8] = Rattus norvegicus, Microglia, primary microglia HTS, LPS stimulation, compounds at 10 μM; read-out: LPS % inhibition
[9] = Rattus norvegicus, Microglia, 48 h, read-out: LPS % inhibition
[10] = Rattus norvegicus, Microglia, read-out: LPS % inhibition
[11] = quadrant by fibrin and LPS inhibition in HTS of 1907 compounds
[12] = primary microglia HTS, 10 μM, fibrin-stimulated, cell size >800 μm^2 as marker of activation
[13] = HTS of 1907 compounds, quadrant by fibrin and LPS inhibition
[14] = read-out: Fibrin IC50 (uM) (Suppl. Table 7)
[15] = read-out: LPS IC50 (uM) (Suppl. Table 7)
[16] = primary microglia HTS, fibrin stimulation, cell size >800 μm2 as marker of activation
[17] = Rattus norvegicus, Microglia, 48 h; read-out: LPS % inhibition
[18] = classification by fibrin and LPS inhibition in HTS
[19] = quadrant by fibrin and LPS inhibition, HTS at 10 μM
[20] = primary microglia HTS, fibrin stimulation, increased cell size (>800 μm^2) as marker of activation
[21] = Rattus norvegicus, Microglia, 48 h, primary microglia HTS, LPS stimulation; increased cell size (>800 μm^2) as marker of activation; read-out: LPS % inhibition

CC12CCC(CC1=O)C2(C)C [D-camphor]
Fibrin % inhibition [1, 6]: −32% | LPS % inhibition ([2]; primary microglia HTS, LPS stimulation, compounds at 10 μM): 6% | Quadrant (FIG. 5b) [3, 7]: Q4 | Fibrin % cell toxicity (primary rat microglia [4]): 0% | LPS % cell toxicity (primary rat microglia [5]): 0%

CC12CCC(CC1)C(C)(C)O2 [Eucalyptol]
inhibition at 10 µM [1, 6]: -15% | inhibition at 10 µM [2, 8]: 9% | Quadrant (FIG. 5b) [3, 7]: Q4 | Fibrin % cell toxicity (primary rat microglia [4]; rat): 0% | LPS % cell toxicity (primary rat microglia [5]; rat): 0%

COc1cc(NC(C)CCCN)c2ncccc2c1 (stereo not shown) [Primaquine]
inhibition at 10 µM [1]: -58% | inhibition at 10 µM [2, 9]: 7% | Quadrant (FIG. 5b) [3]: Q4 | Fibrin % cell toxicity (primary rat microglia [4]; rat): 0% | LPS % cell toxicity (primary rat microglia [5]; rat): 0%

Brc1c(NC2=NCCN2)ccc2nccnc12 [Brimonidine]
inhibition at 10 µM [1]: -36% | inhibition at 10 µM [2, 10]: -9% | Quadrant (FIG. 5b) [3]: Q4 | Fibrin % cell toxicity (primary rat microglia [4]; rat): 1% | LPS % cell toxicity (primary rat microglia [5]; rat): 0%

O=NN(CCCl)C(=O)NC1CCCCC1 [Lomustine]
inhibition at 10 µM ([1]; primary microglia HTS, fibrin stimulation, activation = cell size >800 μm2): 0% | inhibition at 10 µM ([2]; Rattus norvegicus, Microglia, 48 h, primary microglia HTS, LPS stimulation, activation = cell size >800 μm2; read-out: LPS % inhibition): 19% | Quadrant (FIG. 5b) [3, 11]: Q4 | Fibrin % cell toxicity (primary rat microglia [4]; rat): 1% | LPS % cell toxicity (primary rat microglia [5]; rat): 1%

O=C1Cc2cc(CCN3CCN(c4nsc5ccccc45)CC3)c(Cl)cc2N1 [Ziprasidone Mesylate, Ziprasidone]
Fibrin % inhibition [1, 12]: 14% | LPS % inhibition ([2]; primary microglia HTS, 10 μM, LPS-stimulated, cell size >800 μm^2 as marker of activation): 35% | Quadrant (FIG. 5b) [3, 13]: Q4 | Fibrin % cell toxicity (primary rat microglia [4]): 1% | LPS % cell toxicity (primary rat microglia [5]): 1%

C[C@@H]1C[C@H]2[C@@H]3C[C@H](F)C4=CC(=O)C=C[C@]4(C)[C@@]3(F)[C@@H](O)C[C@]2(C)[C@@]1(O)C(=O)COC(=O)C(C)(C)C [Flumethazone pivalate, reference compound]
Fibrin % inhibition [1]: 101% | Fibrin Selectivity [1]: 4 | Fibrin Selectivity (LOG10) [1]: 0.58 | fib specificity [1]: 1.0 | fib_HS [1]: −0.23 | IC50 ([1]; read-out: Fibrin IC50): < 0.001 µM | IC50 [1, 14]: < 0.001 µM | LPS % inhibition [2]: 94% | LPS specificity [2]: 1.0 | LPS_HS [2]: 0.00 | IC50 ([2]; read-out: LPS IC50): 0.004 µM | IC50 [2, 15]: 0.004 µM | Activity [3]: fib/LPS | Cherry-picked Hit (Suppl. Table 7) [3]: HIT (key: HIT: Hits were defined as molecules that exhibited greater than 50% inhibition of either fibrin or LPS activation) | Hit [3]: HIT (key: HIT: Hits were defined as molecules that exhibited greater than 50% inhibition of either fibrin or LPS activation) | Quadrant (FIG. 5b) [3]: Q2 | Fibrin % cell toxicity (primary rat microglia [4]): 1% | IC50 (primary rat microglia [4]): > 20000 nM | IC50 (primary rat microglia [5]): > 20000 nM | LPS % cell toxicity (primary rat microglia [5]): 3%

CC(C)NCC(O)c1ccc(NS(C)(=O)=O)cc1 (stereo not shown) [Sotalol]
inhibition at 10 µM [1, 16]: 6% | inhibition at 10 µM [2, 17]: 6% | Quadrant (FIG. 5b) [3, 18]: Q4 | Fibrin % cell toxicity (primary rat microglia [4]; rat): 1% | LPS % cell toxicity (primary rat microglia [5]; rat): 0%

O=C1CN(/N=C/c2ccc([N+](=O)[O-])o2)C(=O)N1 [Nitrofurantoin]
inhibition at 10 µM [1]: -3% | inhibition at 10 µM [2, 9]: 11% | Quadrant (FIG. 5b) [3]: Q4 | Fibrin % cell toxicity (primary rat microglia [4]; rat): 1% | LPS % cell toxicity (primary rat microglia [5]; rat): 0%

C[N+](C)(C)CC(=O)O [Trimethyl Glycine]
Fibrin % inhibition ([1]; 10 µM): −14% | LPS % inhibition ([2]; 10 µM): 22% | Quadrant (FIG. 5b) [3]: Q4 | Fibrin % cell toxicity (primary rat microglia [4]): 0% | LPS % cell toxicity (primary rat microglia [5]): 0%

CCOc1ccccc1OC(c1ccccc1)C1CNCCO1.CS(=O)(=O)O (stereo not shown) [Reboxetine Mesylate]
Fibrin % inhibition [1, 16]: −33% | LPS % inhibition ([2]; primary microglia HTS, LPS stimulation, cell size >800 μm2 as marker of activation): 8% | Quadrant (FIG. 5b) [3, 18]: Q4 | Fibrin % cell toxicity (primary rat microglia [4]): 1% | LPS % cell toxicity (primary rat microglia [5]): 0%

Cl.N=C(N)NCCC[C@H](N)C(=O)O [Arginine Hydrochloride]
inhibition at 10 µM [1, 6]: 9% | inhibition at 10 µM [2, 8]: 42% | Quadrant (FIG. 5b) [3, 19]: Q4 | Fibrin % cell toxicity (primary rat microglia [4]; rat): 0% | LPS % cell toxicity (primary rat microglia [5]; rat): 2%

CCOc1ccc(NC(=O)CC(C)O)cc1 (stereo not shown) [Bucetin]
inhibition at 10 µM ([1]; primary HTS, 10 μM, fibrin-stimulated primary microglia): -25% | inhibition at 10 µM ([2]; Rattus norvegicus, Microglia, primary HTS, 10 μM, LPS-stimulated primary microglia; read-out: LPS % inhibition): 12% | Quadrant (FIG. 5b) ([3]; primary HTS, 10 μM): Q4 | Fibrin % cell toxicity (primary rat microglia [4]; rat): 0% | LPS % cell toxicity (primary rat microglia [5]; rat): 0%

C[N+](C)(C)CCO [Choline]
inhibition at 10 µM [1]: 0% | inhibition at 10 µM [2, 10]: 12% | Quadrant (FIG. 5b) [3]: Q4 | Fibrin % cell toxicity (primary rat microglia [4]; rat): 0% | LPS % cell toxicity (primary rat microglia [5]; rat): 0%

Clc1ccc(C(c2ccccc2Cl)C(Cl)Cl)cc1 (stereo not shown) [Mitotane]
inhibition at 10 µM [1, 20]: -19% | inhibition at 10 µM [2, 21]: -1% | Quadrant (FIG. 5b) [3, 11]: Q4 | Fibrin % cell toxicity (primary rat microglia [4]; rat): 0% | LPS % cell toxicity (primary rat microglia [5]; rat): 0%

O=C1CC2(CCCC2)CC(=O)N1CCCCN1CCN(c2ncccn2)CC1 [Buspirone]
inhibition at 10 µM [1]: -13% | inhibition at 10 µM [2, 10]: 8% | Quadrant (FIG. 5b) [3]: Q4 | Fibrin % cell toxicity (primary rat microglia [4]; rat): 0% | LPS % cell toxicity (primary rat microglia [5]; rat): 0%

CNNCc1ccc(C(=O)NC(C)C)cc1 [Procarbazine]
inhibition at 10 µM [1, 16]: -21% | inhibition at 10 µM [2, 17]: 9% | Quadrant (FIG. 5b) [3, 18]: Q4 | Fibrin % cell toxicity (primary rat microglia [4]; rat): 1% | LPS % cell toxicity (primary rat microglia [5]; rat): 0%

Oc1cccc2cccnc12 [Oxyquinoline]
inhibition at 10 µM [1]: 117% | inhibition at 10 µM [2, 10]: 116% | Quadrant (FIG. 5b) [3]: Q2 | Fibrin % cell toxicity (primary rat microglia [4]; rat): 80% | LPS % cell toxicity (primary rat microglia [5]; rat): 57%

N[C@@H](Cc1ccc(O)cc1)C(=O)O [Tyrosine]
inhibition at 10 µM [1, 12]: -7% | inhibition at 10 µM ([2]; Rattus norvegicus, Microglia, primary microglia HTS, 10 μM, LPS-stimulated, cell size >800 μm^2 as marker of activation; read-out: LPS % inhibition): 21% | Quadrant (FIG. 5b) [3, 13]: Q4 | Fibrin % cell toxicity (primary rat microglia [4]; rat): 1% | LPS % cell toxicity (primary rat microglia [5]; rat): 1%

Cc1nc2n(c(=O)c1CCN1CCC(c3noc4cc(F)ccc34)CC1)CCCC2O (stereo not shown) [Paliperidone]
inhibition at 10 µM [1, 20]: -26% | inhibition at 10 µM [2, 21]: 9% | Quadrant (FIG. 5b) [3, 11]: Q4 | Fibrin % cell toxicity (primary rat microglia [4]; rat): 1% | LPS % cell toxicity (primary rat microglia [5]; rat): 0%

CN(Cc1cnc2nc(N)nc(N)c2n1)c1ccc(C(=O)N[C@@H](CCC(=O)O)C(=O)O)cc1 [Methotrexate]
inhibition at 10 µM [1, 20]: -32% | inhibition at 10 µM [2, 21]: -4% | Quadrant (FIG. 5b) [3, 11]: Q4 | Fibrin % cell toxicity (primary rat microglia [4]; rat): 1% | LPS % cell toxicity (primary rat microglia [5]; rat): 0%

O=C([O-])C[C@H](O)C[C@H](O)/C=C/c1c(C2CC2)nc2ccccc2c1-c1ccc(F)cc1.O=C([O-])C[C@H](O)C[C@H](O)/C=C/c1c(C2CC2)nc2ccccc2c1-c1ccc(F)cc1.[Ca+2] [Pitavastatin calcium, reference compound]
Fibrin % inhibition [1]: 100% | Fibrin Selectivity [1]: 4 | Fibrin Selectivity (LOG10) [1]: 0.61 | IC50 ([1]; read-out: Fibrin IC50): 1 µM | IC50 [1, 14]: 1 µM | LPS % inhibition [2]: 66% | IC50 ([2]; read-out: LPS IC50): 5 µM | IC50 [2, 15]: 5 µM | Cherry-picked Hit (Suppl. Table 7) [3]: HIT (key: HIT: Hits were defined as molecules that exhibited greater than 50% inhibition of either fibrin or LPS activation) | Hit [3]: HIT (key: HIT: Hits were defined as molecules that exhibited greater than 50% inhibition of either fibrin or LPS activation) | Quadrant (FIG. 5b) [3]: Q2 | Fibrin % cell toxicity (primary rat microglia [4]): 1% | IC50 (primary rat microglia [4]): > 20000 nM | IC50 (primary rat microglia [5]): > 20000 nM | LPS % cell toxicity (primary rat microglia [5]): 1%

Cc1cc(=O)oc2cc(O)ccc12 [7-hydroxy-4-methyl-2H-chromen-2-one]
inhibition at 10 µM [1, 6]: 12% | inhibition at 10 µM [2, 8]: 4% | Quadrant (FIG. 5b) [3, 19]: Q4 | Fibrin % cell toxicity (primary rat microglia [4]; rat): 0% | LPS % cell toxicity (primary rat microglia [5]; rat): 0%

CC(C)CN(C[C@@H](O)[C@H](Cc1ccccc1)NC(=O)O[C@H]1CCOC1)S(=O)(=O)c1ccc(N)cc1 [Amprenavir]
inhibition at 10 µM [1, 6]: -10% | inhibition at 10 µM [2, 8]: 6% | Quadrant (FIG. 5b) [3, 19]: Q4 | Fibrin % cell toxicity (primary rat microglia [4]; rat): 1% | LPS % cell toxicity (primary rat microglia [5]; rat): 0%

CNC(=O)Oc1ccc2c(c1)[C@]1(C)CCN(C)[C@@H]1N2C [Physostigmine]
inhibition at 10 µM [1, 16]: -73% | inhibition at 10 µM [2, 17]: 18% | Quadrant (FIG. 5b) [3, 18]: Q4 | Fibrin % cell toxicity (primary rat microglia [4]; rat): 0% | LPS % cell toxicity (primary rat microglia [5]; rat): 0%

Nc1ccc(S(=O)(=O)c2ccc(N)cc2)cc1 [Dapsone]
inhibition at 10 µM [1, 6]: -23% | inhibition at 10 µM [2, 8]: 11% | Quadrant (FIG. 5b) [3, 7]: Q4 | Fibrin % cell toxicity (primary rat microglia [4]; rat): 1% | LPS % cell toxicity (primary rat microglia [5]; rat): 0%

CO[C@H]1/C=C/O[C@@]2(C)Oc3c(C)c(O)c4c(O)c(c(/C=N/N5CCN(C)CC5)c(O)c4c3C2=O)NC(=O)/C(C)=C\C=C\[C@H](C)[C@H](O)[C@@H](C)[C@@H](O)[C@@H](C)[C@H](OC(C)=O)[C@@H]1C [Rifampin]
Fibrin % inhibition [1]: 8% | LPS % inhibition [2]: 20% | Quadrant (FIG. 5b) [3]: Q4 | Fibrin % cell toxicity (primary rat microglia [4]; rat): 1% | LPS % cell toxicity (primary rat microglia [5]; rat): 0%

Source: patent publication US20210330611A1, “THERAPY FOR NEUROLOGICAL DISEASES/DISORDERS” (priority 2020, published 2021)
